Measurements reported in article PMC9266561, “1,3-Benzodioxole Derivatives Improve the Anti-Tumor Efficiency of Arsenicals” (International Journal of Molecular Sciences, 2022).
pIC50: −log10 of the molar value. Read-outs that look alike come from different tables or passages of the source.

Legend:
[1] = Side effects in 4T1 tumor-bearing mice; assay type: in vivo
Procedure: (§1) The mice (BALB/c, female, 5 weeks), purchased from Hubei Provincial Laboratory Animal Public Service Center, were injected with 0.1 mL of 4T1 cells (1 × 10^6/mL) in the right haunch. After the tumor grew to approximately 100 mm^3, the mice were randomly divided into three groups: control (PBS:DMSO = 8:2), 1 mg/kg, and 1.5 mg/kg. The MAZ2 was administrated once a week (i.p.) for two doses. The 1.5 mg/kg group had six mice, and the tumors of two mice disappeared after 8 days; that is, after one administration, the two tumors were almost eliminated. The body weight and tumor volume were measured every two days.
Blood samples for the blood cell content tests were collected from the eye socket veins of the mice.
(§2) Fresh tumors and organs were minced quickly in an ice bath and homogenized in a pre-cooled Dounce Tissue Grinder (WHEATON). The homogenate was dissolved by RIPA with 0.1% PMSF. The protein concentration was determined by a BCA Protein Assay Kit (Beyotime, Shanghai, China). A total of 20–40 μg of proteins were separated by 8–12% SDS-PAGE according to the molecular weight of certain proteins, followed by being transferred onto the polyvinylidene difluoride membrane. Then, the membrane was blocked with 5% fat-free milk for 2 h, followed by incubation with primary antibodies and HRP-conjugated secondary antibodies. Then, the images were snapped by QuickChemi5100.
The 5 organs were formalin-fixed for 24 h immediately after the mice were sacrificed, and decalcified for 3.5 h, paraffin-embedded, cut, dewaxed, and hydrated. Some samples were stained with H&E. The pictures in the results were magnified by 400× and the scale bar was 50 µm.

NB4 = assay: cells; assay type: cell-based
Molm-13 = assay: cells; assay type: cell-based
4T1 cells = assay: ROS level by DCFH-DA in 4T1 cells; assay type: cell-based
Procedure: The 4T1 cells treated with the MAZ2 of 0.8 and 1.6 µM were seeded in 6-well plates for 3, 6, 9, 12, and 24 h. Then, the medium was removed and fresh medium with DCFH-DA (0.2 µM) was added, followed by 30 min of incubation. Next, cells were collected and washed twice with PBS. Data were collected by a C6 flow cytometer (BD Biosciences, Franklin Lakes, New Jersey, USA).
The 4T1 cells treated with the MAZ2 of 0.8 and 1.6 µM were cultured in 1 cm dishes specially designed for confocal tests. Nine hours later, DCFH-DA was added for confocal tests.

Molm-13 cells = assay: Apoptosis assay by flow cytometry; assay type: cell-based; details: 0.2, 0.3 and 0.4 µM, 24 h
Procedure: The Molm-13 cells were cultured with 0.2, 0.3, and 0.4 µM MAZ2 for 24 h; then, the cells were collected and stained using annixin V-FITC and PE for 30 min. The separation lines were determined by single staining.

PBMC = assay: cells; assay type: cell-based, rat
[2] = test system: 4T1 cells with TrxR knocked down; assay: MTT assay of 4T1 cells with TrxR siRNA knock-down; assay type: cell-based
TrxR = assay: Cellular TrxR activity of 4T1 cells; assay type: cell-based; details: 12 h incubation
[3] = Arsenic content of viscera and tumor by ICP-MS; details: mouse, in vivo
[4] = test system: Trx system (TrxR1, Trx1, TrxR2, Trx2); assay: Transcription of Trx system genes in 4T1 cells; assay type: cell-based; details: 24 h, 1IC50 and 1.5IC50
Text: See the methods in previous work.

4T1 tumors = assay: 4T1 tumor syngeneic model in Balb/C mice; assay type: in vivo; details: for average tumor weight reduced by: two administrations, day 26
Procedure: To confirm the bioactivity of MAZ2 in vivo, the tumor growth inhibition in 4T1 tumor syngeneic models in Balb/C mice was investigated (Figure 4A). When tumors grew to about 100 mm^3, the mice were divided into three groups; namely, the control, 1 mg/kg of MAZ2, and 1.5 mg/kg of MAZ2. Either a vehicle or the MAZ2 was injected intraperitoneally once a week. […] Therefore, the experiments were terminated at day 26 after two administrations.
as §1, §2

Molm-13 and 4T1 cells = assay: MDA content (lipid peroxidation); assay type: cell-based; details: 6 and 12 h
Procedure: The Molm-13 and 4T1 cells were cultured in 6-well plates for 6 and 12 h, followed by an MDA test according to the manufacturer’s instructions.

cancer cells = assay: MTT assay, cancer cell lines taken together; assay type: cell-based; details: all cancer cell lines
Procedure: The bioactivity of all the synthetic compounds was evaluated by a MTT assay (Table 1, Tables S1 and S2) against two leukemia cell lines, Molm-13 and NB4; two solid tumor cell lines, HeLa (human cervix cell line) and 4T1 (breast cancer cell line); and two normal cell lines, COS-7 (African green monkey kidney cell line) and rat PBMC (peripheral blood mononuclear cell line).
Cells were cultured in 96-well plates overnight, followed by adding 80 μL of a related medium containing compounds of different concentrations and dissolved in DMSO for 24 h or 48 h. Then, 40 μL of MTT (2.5 mg/mL) was added and the cells were incubated for another 4 h. The cells were then dissolved in 100 μL of 10% SDS solution or DMSO to release and dissolve the purple MTT products, followed by absorbance detection (BioTek, Winooski, VT, USA).

HeLa = assay: cells; assay type: cell-based, human
GSH = GSH content; assay type: cell-based
4T1 = assay: cells; assay type: cell-based
COS-7 = assay: cells; assay type: cell-based, African green monkey
[5] = rat, in vivo

With `COc1ccc(C(=O)Nc2ccc([As]3SCCCS3)cc2)cc1` [MAZ2] the “body weight of the mice” value ([1]; 1 and 1.5 mg/kg i.p. once a week) was “no obvious impact on the body weight”, the “blood cell counts (WBC, NEUT, LYMPH, MONO)” value ([1]; tumor-bearing mice versus normal mice) was “lowered the counts of blood cells and reversed abnormalities in the hematological system” and the “H&E staining of heart, liver, spleen, lungs, kidneys” value ([1]; two MAZ2-administered groups) was “showed healthy organs”. For the same compound, the “TrxR content of the liver and spleen” value ([1]; western blot) was “no changes”, the pIC50 (NB4; read-out: IC50 NB4 24 h) was 6.40 and the pIC50 (NB4; read-out: IC50 NB4 48 h) was 6.52. The pIC50 (Molm-13; read-out: IC50 Molm 24 h) was 6.70, the pIC50 (Molm-13; read-out: IC50 Molm 48 h) was 7.00 and the “incubation time at which the ROS peak was reached” value (4T1 cells) was 9 h. For the same compound, the ROS level (4T1 cells; 0.8 and 1.6 µM) was “rose sharply in a dosage-dependent manner”, the apoptosis induction (Molm-13 cells) was “induced apoptosis in a dosage-dependent manner” and the pIC50 (PBMC; read-out: IC50 PBMC 24 h) was 5.12. For the same compound, the pIC50 (PBMC; read-out: IC50 PBMC 48 h) was 5.16, the “change of IC50 value after TrxR was knocked down” value [2] was 5.5 fold and the “TrxR activity of the 4T1 cells” value (TrxR) was “sharply reduced activity”. The “arsenic content of tumor and viscera” value [3] was “gathered in the tumor instead of the viscera”, the “transcription of the Trx system” value [4] was “decreased the transcription of the Trx system” and the “average tumor weight reduced by” value (4T1 tumors; 1 mg/kg i.p. once a week) was 30%. For the same compound, the “tumor growth (tumor volume)” value (4T1 tumors; 1 mg/kg or 1.5 mg/kg i.p. once a week) was “completely reverse the growth of tumors and gradually eliminate tumors”, the tumors eliminated (4T1 tumors; 1.5 mg/kg i.p. once a week, after two weeks) was “two tumors in the mice belonging to the 1.5 mg/kg MAZ2 group were eliminated” and the “average tumor weight reduced by” value (4T1 tumors; 1.5 mg/kg i.p. once a week) was 15%. For the same compound, the “TrxR and Trx content of tumors by western blot” value (4T1 tumors; tumors of treated mice) was “reduced the TrxR1 content slightly and reduced the Trx1 content by a large amount”, the MDA content (Molm-13 and 4T1 cells) was “increased acutely and dosage-dependently” and the pIC50 (cancer cells) was greater than 6.00. For the same compound, the pIC50 (HeLa; read-out: IC50 HeLa 24 h) was 6.40, the pIC50 (HeLa; read-out: IC50 HeLa 48 h) was 6.52 and the “influence on the GSH content” value (GSH) was “very little influence”. The pIC50 (4T1; read-out: IC50 4T1 24 h) was 6.10, the pIC50 (4T1; read-out: IC50 4T1 48 h) was 6.40 and the pIC50 (COS-7; read-out: IC50 COS-7 24 h) was 5.28. The pIC50 (COS-7; read-out: IC50 COS-7 48 h) was 5.48 and the “blood arsenic content over time” value [5] was “decreased slowly and remained at high levels even after 2 days”.
